Reference: patent publication US10463664B2, “Inhibitors of HSV nucleotidyl transferases and uses therefor” (Saint Louis University, priority 2013, dated 2019)
Where two headings read alike, the source gives them in different places.

What was measured:
[1] = tested on: HSV-1 TK-deficient mutant ΔTK (strain 17); experiment: Replication inhibition of thymidine kinase-deficient HSV-1 mutant in Vero cells; format: cell-based, herpes simplex virus 1; details: 50 μM, 24 h
Experimental: Cells and Viruses. Vero cells were maintained in Dulbecco's modified Eagle's medium (DMEM) containing 3% newborn calf serum, 3% bovine growth serum, 2 mM L-glutamine and 100 IU/mL penicillin and 0.1 mg/mL streptomycin (P/S). Primary human foreskin fibroblasts (ATCC #CRL2429™) were cultured in DMEM containing 10% FBS, 2 mM L-glutamine plus P/S, and used at passage 3 to 12. HSV-1 #6 and HSV-2 #1 are de-identified clinical isolates from the Saint Louis University Hospital. Stocks were prepared after a single passage in cell culture and were titered by standard plaque assay (Knipe and Spang, 1982). Wild-type HSV-1 and HSV-2 used in FIG. 6 were laboratory strains 17 and 333, respectively. The HSV-1 TK-deficient mutant, ΔTK contains a 361-bp deletion between the BglII-SmaI restriction enzyme sites in the UL23 open reading frame of strain 17 (Korom, et al., 2013). The TK-deficient mutant of HSV-2 strain 333, ΔTK-, contains a 180-bp KpnI-KpnI deletion in the UL23 open reading frame that abrogates TK activity (McDermott, et al, 1984). ΔTK- was the generous gift of Jim Smiley. Virus stocks were grown and titered on Vero cells (Morrison and Knipe, 1996).
Inhibition of acyclovir-resistant HSV-1 and HSV-2 mutants. […] HSV TK-deficient mutants are therefore insensitive to ACV. […] Vero cells were infected with laboratory strains of HSV-1 or HSV-2 and engineered TK-deficient mutants of the same strains. […] Similar patterns were seen when the compounds were used at 5 μM (FIG. 8B), although inhibition by compound #30 at 5 μM was too low to definitively interpret.

[2] = tested on: HSV-1; experiment: Topical treatment of mice infected with HSV-1 on the cornea; format: in vivo; details: for Body weight post-infection: 1 μg three times daily for 5 days
Experimental: Compounds were administered at 1 μg/eye in 10% DMSO. Two mice were treated with 10% DMSO as a negative control. The corneal surface was swabbed once per day on days 1, 2, 4 and 5 post-infection and titer of virus shed from the epithelium was determined by standard plaque assay. On the fifth day post-infection mice were euthanized and the trigeminal ganglia (TG) and brainstems were dissected. The tissues were disrupted and virus in them quantified by plaque assay. […] Weight of individual mice was recorded daily. […] Saline was a negative control. On the fifth day post-infection mice were euthanized and the trigeminal ganglia (TG) and brainstems were dissected. The tissues were disrupted and virus in them quantified by plaque assay.
Body weight was monitored daily post-infection as a sensitive indicator of overall health (FIG. 12).
Infected mice treated with saline served as a negative control.

[3] = tested on: Vero cells; experiment: MTT mitochondrial toxicity assay in Vero cells; format: cell-based; details: 24 h; read-out: Vero cell toxicity MTT CC50
[4] = tested on: primary human foreskin fibroblasts; experiment: in vitro
Experimental: Toxicity Assays. Qualitative assessments of cytotoxicity were done visually by inspecting the cells in the primary screening assays. For the quantitative assays, cells were plated in 96-well plates at 1.0×10^4 per well. The next day the compounds were added at 0.78 to 100 μM in a final concentration of 1% (v/v) DMSO, and the cells were incubated for 24 hours under conditions identical to those employed for the viral replication inhibition assays. Mitochondrial toxicity was measured by incubating the cells with 0.25 mg/mL thiazolyl blue tetrazolium bromide (MTT, SigmaAldrich Chemical Co.), the cultures were incubated for 60 min, metabolites were solubilized in acidic isopropanol, and absorbance was read at 570 nm. Cellular lysis was measured by detecting release of intracellular proteases with the CytoTox-Glo assay (Promega) according to the manufacturer's instructions. Percent viability was determined for each compound concentration from the maximal absorbance or luminosity data, and then CC50 values were calculated by non-linear curve fitting using GraphPad Prism.
Inhibition of viral replication was next assessed in human foreskin fibroblasts (HFF) to determine whether NTS inhibitors could block HSV-1 and HSV-2 replication in a physiologically relevant, primary human cell type. […] Viral yields 24 hours post-infection were measured by plaque assay.

[5] = tested on: HCMV strain AD169; experiment: HCMV plaque reduction assay in HFFs; format: cell-based, human cytomegalovirus; details: 10 days, read-out: EC50 against HCMV, plaque reduction assay
Experimental: HCMV plaque reduction EC50 and toxicity assays. Low passage primary HFFs were infected with HCMV strain AD169 in the presence of serial dilutions of the compounds from 0.032 to 100 μM. Ten days later the monolayers were stained with 1% neutral red solution in PBS. After rinsing, plaques were counted using a stereomicroscope and the EC50 was interpolated from the data. Cytotoxicity was measured using a plate-based assay in which compounds were added to HFFs at 0.032 to 100 μM. At the end of the incubation period, plates were stained for 1 h with a neutral red solution in PBS. The stain was then removed, the plates rinsed in PBS and dried, and dye internalized by viable cells was determined at OD550. CC50 values were interpolated from the data.
Compounds #41, 46, 49, 55, 56, and 59 and the FDA-approved, anti-HCMV drug ganciclovir were subsequently evaluated with plaque reduction and toxicity assays in HFFs. HFFs were infected with HCMV in the presence of serial dilutions of the compounds. After 10 days the cultures were stained with neutral red and plaques were counted. Compound cytotoxicity for uninfected cells was determined in the same manner except that neutral red uptake by viable cells was measured by optical density. […] The TI values for the five NTS inhibitors of HCMV ranged from 5 for compound #46 to 17 for #55 and 59. Therefore, NTS inhibitors can suppress HCMV replication in addition to inhibiting the HSVs.

[6] = 1 μg/eye once daily, compared with DMSO control
[7] = 7.5 μg/eye three times per day, BALB/c mice, versus saline control

SMILES | Inhibition of TK-mutant HSV-1 (in words) [1] | Body weight post-infection [2] | Virus in the TG at 5 days post-infection [2, 6] | Virus shed in the tear film [2, 6] | Titers of virus in the TG on day 5 post-infection [2, 7] | CC50 [3] | CC50 [4] | EC50 ([5]; Human betaherpesvirus 5, AD169, 240 h) | Titers of virus in the brainstem on day 5 post-infection [2, 7] | EC50 [5] | Virus in the brainstem at 5 days post-infection [2, 6]
Nc1nc2c(ncn2COCCO)c(=O)[nH]1 [ACV, Acyclovir, reference compound] | little effect | maintained their weight through 8 days post-infection | significantly reduced | transiently reduced | reduced to a similar extent |  |  |  |  |  | 
CCOc1ccc(-c2c3cc(O)c(=O)cc-3oc3cc(O)c(O)cc23)cc1 [Compound 30] | efficiently inhibited |  |  |  |  | > 100 µM | > 100 µM |  |  |  | 
Cc1cc(C2CCCCC2)n(O)c(=O)c1 [Compound 41, Ciclopirox, reference compound] | efficiently inhibited |  |  |  | lower |  |  | 0.33 µM | lower |  | 
CC(C)c1ccc(O)c(=O)c(O)c1 [Compound 46, Beta-thujaplicinol] | efficiently inhibited | maintained their weight through 8 days post-infection | significantly reduced | transiently reduced |  | > 100 µM | > 100 µM |  |  | 1.3 µM | significantly reduced
CC(C)=CCc1ccc(O)c(=O)cc1C(C)C [Compound 49, Nootkatin] |  |  |  |  |  | > 100 µM | > 100 µM |  |  | 0.45 µM | 
CC(=O)NC(CCc1ccc(Cl)c(Cl)c1)c1cccc(O)c(=O)c1 (centres unmarked) [Compound 55] |  |  |  |  |  | > 100 µM | > 100 µM |  |  | 0.47 µM | 
C=C(C)C1CCc2c(c(C)cc(O)c(=O)c2O)C1 (centres unmarked) [Compound 56, Manicol] |  |  |  |  |  | > 100 µM | > 100 µM |  |  | 2.66 µM | 
